# Target: T1, human PAH with the R408W mutation (Homo sapiens, UniProt P00439, R408W)
# T1 construct: expressed in transfected cells
# T1 sequence (P00439 1-452 R408W): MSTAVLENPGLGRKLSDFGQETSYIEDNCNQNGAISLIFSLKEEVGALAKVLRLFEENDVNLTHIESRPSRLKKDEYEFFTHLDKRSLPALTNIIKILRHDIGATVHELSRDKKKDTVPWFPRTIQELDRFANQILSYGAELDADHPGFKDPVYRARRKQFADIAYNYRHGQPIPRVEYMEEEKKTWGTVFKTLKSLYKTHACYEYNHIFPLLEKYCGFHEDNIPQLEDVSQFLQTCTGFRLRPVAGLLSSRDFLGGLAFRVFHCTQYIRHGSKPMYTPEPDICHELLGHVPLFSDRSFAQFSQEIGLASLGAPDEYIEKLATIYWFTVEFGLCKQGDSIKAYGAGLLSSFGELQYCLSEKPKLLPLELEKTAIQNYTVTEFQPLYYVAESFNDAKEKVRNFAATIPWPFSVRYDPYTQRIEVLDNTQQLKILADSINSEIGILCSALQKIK
# Assay: Cell Based Phenylalanine Flux Assay
# Parameters: scale not given here
# Settings: A375 R408W cells, 24 hrs with compound, then 20 μM sepiapterin and 800 μM 13C9,15N-Phenylalanine for 4 hours; 13C-Tyrosine by LC-MS; average where tested multiple times
row,AC50,Structure (SMILES)
1,"E, E","CC1CN(C(=O)c2oc(-c3ccccn3)nc2C(F)(F)F)C(c2cc3ccccc3cn2)c2nc[nH]c21 [(4S, 7S) diastereomer of (4-(isoquinolin-3-yl)-7-methyl-6,7-]"
2,"E, E","Cn1ccc(-c2nc(C(F)F)c(C(=O)N3CCc4[nH]cnc4[C@H]3c3ncc4ccccc4n3)o2)n1 (single isomer, unassigned)"

# Same assay, conditions: A375 R408W cells, 24 hrs with compound, then 20 μM sepiapterin and 800 μM 13C9,15N-Phenylalanine for 4 hours; 13C-Tyrosine by LC-MS; average where tested multiple times; read-out: AC50
row,AC50,Structure (SMILES)
1,> 5000 nM,Cc1nc(N)oc1C(=O)N1CCc2[nH]cnc2C1c1ccc2ccccc2n1 (centres unmarked)
2,> 5000 nM,Cc1nc(N2CCC(F)CC2)oc1C(=O)N1CCc2[nH]cnc2C1c1ccc2ccccc2n1 (centres unmarked)
3,1000 to 5000 nM,C[C@@H]1CN(C(=O)c2nnc(C3(C)CC3)o2)[C@@H](c2cc3ccccc3cn2)c2nc[nH]c21
4,1000 to 5000 nM,CC(C)(O)c1ncc(C(=O)N2CCc3[nH]cnc3C2c2cc3ccccc3cn2)o1 (centres unmarked)
5,1000 to 5000 nM,Cc1ncoc1C(=O)N1CCc2[nH]cnc2C1c1ncc2ccccc2n1 (centres unmarked)
6,1000 to 5000 nM,Cc1nc(C(C)(C)O)oc1C(=O)N1CCc2[nH]cnc2C1c1cn2ccccc2n1 (centres unmarked)
7,1000 to 5000 nM,O=C(c1cnn2cc(N3CCC(O)CC3)ccc12)N1CCc2[nH]cnc2C1c1ncc2ccccc2n1 (centres unmarked)
8,1000 to 5000 nM,Cc1ncoc1C(=O)N1CC2(CC2)c2[nH]cnc2C1c1cn2ccccc2n1 (centres unmarked)
9,> 5000 nM,N#Cc1ncoc1C(=O)N1CCc2[nH]cnc2C1c1cn2ccccc2n1 (centres unmarked)

row,Structure (SMILES),AC50
1,"Cc1ncoc1C(=O)N1CC2(CC2)c2[nH]cnc2[C@H]1c1ccc2ccccc2n1 (single isomer, unassigned)",> 5000 nM

# Same assay, conditions: A375 cells expressing human R408W PAH; 24 hrs compound incubation; 13C-Tyrosine by LC-MS; average where tested multiple times; read-out: AC50
row,AC50,Structure (SMILES)
1,< 500 nM,"Cn1cc(-c2ccc3c(C(=O)N4CCc5[nH]cnc5[C@H]4c4cc5ccccc5cn4)cnn3c2)cn1 [Example 456, (R)-(4-(isoquinolin-3-yl)-6,7-dihydro-1H-imidazo[4,5-c]pyridin-5(4H)-yl)(6-(1-methyl-1H-pyrazol-4-yl)pyrazolo[1,5-a]pyridin-3-yl)methanone]"
2,500 to 1000 nM,"Cc1nc(C2(O)CCC2)oc1C(=O)N1CCc2[nH]cnc2C1c1ccc2ccccc2n1 (stereo in doubt) [Example 101, (R)-(2-(1-hydroxycyclobutyl)-4-methyloxazol-5-yl)(4-(quinolin-2-yl)-6,7-dihydro-1H-imidazo[4,5-c]pyridin-5(4H)-yl)methanone]"
3,> 5000 nM,"O=C(c1nnc(-c2ccccn2)o1)N1CCc2[nH]cnc2[C@@H]1c1cc2ccccc2cn1 [Example 325, (S)-(4-(isoquinolin-3-yl)-6,7-dihydro-1H-imidazo[4,5-c]pyridin-5(4H)-yl)(5-(pyridin-2-yl)-1,3,4-oxadiazol-2-yl)methanone]"
4,1000 to 5000 nM,"C[C@H]1CN(C(=O)c2ocnc2C2CC2)[C@@H](c2cc3ccccc3cn2)c2nc[nH]c21 [Example 507, (4-cyclopropyloxazol-5-yl)((4S,7S)-4-(isoquinolin-3-yl)-7-methyl-6,7-dihydro-1H-imidazo[4,5-c]pyridin-5(4H)-yl)methanone]"
5,< 500 nM,"Cc1cnn(C)c1-c1nnc(C(=O)N2CCc3[nH]cnc3[C@H]2c2cc3ccccc3cn2)o1 [Example 455, (R)-(5-(1,4-dimethyl-1H-pyrazol-5-yl)-1,3,4-oxadiazol-2-yl)(4-(isoquinolin-3-yl)-6,7-dihydro-1H-imidazo[4,5-c]pyridin-5(4H)-yl)methanone]"
6,500 to 1000 nM,"C[C@H]1CN(C(=O)c2oc(-c3ccccn3)nc2C2CC2)[C@@H](c2cc3ccccc3cn2)c2nc[nH]c21 [Example 408, (4-cyclopropyl-2-(pyridin-2-yl)oxazol-5-yl)((4S,7S)-4-(isoquinolin-3-yl)-7-methyl-6,7-dihydro-1H-imidazo[4,5-c]pyridin-5(4H)-yl)methanone]"
7,1000 to 5000 nM,"C[C@H]1CN(C(=O)c2nnc(C(C)(C)F)o2)[C@@H](c2cc3ccccc3cn2)c2nc[nH]c21 [Example 498, (5-(2-fluoropropan-2-yl)-1,3,4-oxadiazol-2-yl)((4S,7S)-4-(isoquinolin-3-yl)-7-methyl-6,7-dihydro-1H-imidazo[4,5-c]pyridin-5(4H)-yl)methanone]"
8,< 500 nM,"O=C(c1cnn2cc(-c3cccnc3)ccc12)N1CCc2[nH]cnc2[C@H]1c1cc2ccccc2cn1 [Example 475, (R)-(4-(isoquinolin-3-yl)-6,7-dihydro-1H-imidazo[4,5-c]pyridin-5(4H)-yl)(6-(pyridin-3-yl)pyrazolo[1,5-a]pyridin-3-yl)methanone]"
9,500 to 1000 nM,"CC(F)(F)c1ncc(C(=O)N2CCc3[nH]cnc3C2c2ccc3ccccc3n2)s1 (stereo in doubt) [Example 39, (R)-(2-(1,1-difluoroethyl)thiazol-5-yl)(4-(quinolin-2-yl)-6,7-dihydro-1H-imidazo[4,5-c]pyridin-5(4H)-yl)methanone]"
10,> 5000 nM,"O=C(c1nnc(-c2ccc(F)cc2)o1)N1CCc2[nH]cnc2[C@@H]1c1cc2ccccc2cn1 [Example 343, (S)-(5-(4-fluorophenyl)-1,3,4-oxadiazol-2-yl)(4-(isoquinolin-3-yl)-6,7-dihydro-1H-imidazo[4,5-c]pyridin-5(4H)-yl)methanone]"
11,< 500 nM,"O=C(c1ocnc1C(F)(F)F)N1CCc2[nH]cnc2[C@H]1c1cn2ccccc2n1 [Example 234, (R)-(4-(imidazo[1,2-a]pyridin-2-yl)-6,7-dihydro-1H-imidazo[4,5-c]pyridin-5(4H)-yl)(4-(trifluoromethyl)oxazol-5-yl)methanone]"
12,> 5000 nM,"O=C(c1cnn2ccccc12)N1CCc2[nH]cnc2[C@@H]1c1cn2ccccc2n1 [Example 226, (S)-(4-(imidazo[1,2-a]pyridin-2-yl)-6,7-dihydro-1H-imidazo[4,5-c]pyridin-5(4H)-yl)(pyrazolo[1,5-a]pyridin-3-yl)methanone]"
13,> 5000 nM,"O=C([C@@H]1CC1(F)F)N1CCc2[nH]cnc2C1c1ccc2ccccc2n1 (stereo in doubt) [Example 50, ((S)-2,2-difluorocyclopropyl)((S)-4-(quinolin-2-yl)-6,7-dihydro-1H-imidazo[4,5-c]pyridin-5(4H)-yl)methanone]"
14,< 500 nM,"O=C(c1ccnn1C(F)F)N1CCc2[nH]cnc2C1c1ccc2ccccc2n1 (stereo in doubt) [Example 81, (R)-(1-(difluoromethyl)-1H-pyrazol-5-yl)(4-(quinolin-2-yl)-6,7-dihydro-1H-imidazo[4,5-c]pyridin-5(4H)-yl)methanone]"
15,1000 to 5000 nM,"O=C(c1oc(-c2ccccn2)nc1C1CC1)N1CCc2[nH]cnc2C1c1ccc2ccccc2n1 (stereo in doubt) [Example 44, (S)-(4-cyclopropyl-2-(pyridin-2-yl)oxazol-5-yl)(4-(quinolin-2-yl)-6,7-dihydro-1H-imidazo[4,5-c]pyridin-5(4H)-yl)methanone]"
16,1000 to 5000 nM,"O=C(c1nnc(-c2cc(C(F)(F)F)ccn2)o1)N1CCc2[nH]cnc2C1c1ccc2ccccc2n1 (stereo in doubt) [Example 108, (S)-(4-(quinolin-2-yl)-6,7-dihydro-1H-imidazo[4,5-c]pyridin-5(4H)-yl)(5-(4-(trifluoromethyl)pyridin-2-yl)-1,3,4-oxadiazol-2-yl)methanone]"
17,> 5000 nM,"O=C(c1nnc(-c2ncccc2F)o1)N1CCc2[nH]cnc2[C@@H]1c1ncc2ccccc2n1 [Example 164, (R)-(5-(3-fluoropyridin-2-yl)-1,3,4-oxadiazol-2-yl)(4-(quinazolin-2-yl)-6,7-dihydro-1H-imidazo[4,5-c]pyridin-5(4H)-yl)methanone]"
18,< 500 nM,"Cc1nn(C)cc1-c1nnc(C(=O)N2CCc3[nH]cnc3[C@H]2c2ncc3ccccc3n2)o1 [Example 200, (S)-(5-(1,3-dimethyl-1H-pyrazol-4-yl)-1,3,4-oxadiazol-2-yl)(4-(quinazolin-2-yl)-6,7-dihydro-1H-imidazo[4,5-c]pyridin-5(4H)-yl)methanone]"
19,< 500 nM,"COCc1ccc2c(C(=O)N3CCc4[nH]cnc4[C@H]3c3cc4ccccc4cn3)cnn2c1 [Example 314, (R)-(4-(isoquinolin-3-yl)-6,7-dihydro-1H-imidazo[4,5-c]pyridin-5(4H)-yl)(6-(methoxymethyl)pyrazolo[1,5-a]pyridin-3-yl)methanone]"
20,< 500 nM,"O=C(c1cnn2cc(-c3ncccn3)ccc12)N1CCc2[nH]cnc2[C@H]1c1cc2ccccc2cn1 [Example 483, (R)-(4-(isoquinolin-3-yl)-6,7-dihydro-1H-imidazo[4,5-c]pyridin-5(4H)-yl)(6-(pyrimidin-2-yl)pyrazolo[1,5-a]pyridin-3-yl)methanone]"
21,< 500 nM,"O=C(c1cnc(-c2cnn(CC(F)(F)F)c2)o1)N1CCc2[nH]cnc2[C@H]1c1cc2ccccc2cn1 [Example 305, (R)-(4-(isoquinolin-3-yl)-6,7-dihydro-1H-imidazo[4,5-c]pyridin-5(4H)-yl)(2-(1-(2,2,2-trifluoroethyl)-1H-pyrazol-4-yl)oxazol-5-yl)methanone]"
22,1000 to 5000 nM,"O=C(CC1CC(F)C1)N1CCc2[nH]cnc2C1c1ccc2ccccc2n1 (stereo in doubt) [Example 54, (S)-2-(3-fluorocyclobutyl)-1-(4-(quinolin-2-yl)-6,7-dihydro-1H-imidazo[4,5-c]pyridin-5(4H)-yl)ethanone]"
23,500 to 1000 nM,"Cn1nc(C(F)F)cc1C(=O)N1CCc2[nH]cnc2C1c1ccc2ccccc2n1 (stereo in doubt) [Example 73, (R)-(3-(difluoromethyl)-1-methyl-1H-pyrazol-5-yl)(4-(quinolin-2-yl)-6,7-dihydro-1H-imidazo[4,5-c]pyridin-5(4H)-yl)methanone]"

# Reference: patent publication US20250262201A1, “COMPOUNDS AND METHODS USEFUL FOR STABILIZING PHENYLALANINE HYDROXYLASE MUTATIONS” (Agios Pharmaceuticals, Inc., priority 2022, published 2025)
